From ChEMBL document CHEMBL1128076, “Synthesis of novel 20-oxo-pregnacalciferol analogs with binding affinity to the progesterone receptor” (1995) come the findings set out here.

In general, Inhibition refers to how much of the control response was suppressed.

For the assay, the system named is T47D. In words: Inhibition of breast cancer cell line T47D proliferation. The assay is classed as functional, Homo sapiens. Also on record: concentration or dose not given beside the values.

Each structure is given as a SMILES string.

`C[C@H](CO)C1CCC2/C(=C/C=C3CCCCC3)CCC[C@@]21C` (stereo partly drawn) returned an Inhibition of 13%.

On to `C[C@H](CO)C1CCC2/C(=C/C=C3CCC4(CC3)OCCO4)CCC[C@@]21C` (stereo partly drawn), for which the Inhibition is recorded as 40%. Turning to `CC(=O)C1CCC2/C(=C/C=C3CCCCC3)CCC[C@]12C` (stereo partly drawn), the Inhibition turned out to be 24%.

`C[C@H](C=O)C1CCC2/C(=C/C=C3CCC4(CC3)OCCO4)CCC[C@@]21C` (stereo partly drawn) showed an Inhibition of 47%. `C=C1CC[C@H](O)C/C1=C/C=C1\CCC[C@]2(C)C(C(C)=O)CCC12` (stereo partly drawn) returned an Inhibition of 59%. The figure for `C[C@H](C=O)C1CCC2/C(=C/C=C3CCCCC3)CCC[C@@]21C` (stereo partly drawn) is 36%. The figure for `CC(=O)C1CCC2/C(=C/C=C3CCC4(CC3)OCCO4)CCC[C@]12C` (stereo partly drawn) is 47%; for `CC(=O)C1CCC2/C(=C/C=C3CCC(=O)CC3)CCC[C@]12C` (stereo partly drawn) it is 58%.
